Laboratory results taken from EP0504184B1, “ACTIVE AGENT AGAINST RETROVIRUS GROUP VIRUSES, COMPOSITIONS CONTAINING SAME AND THEIR USE” (PREVISAN S.A., priority 1989, dated 1991).

What was measured:
virus VIH-1 = experiment: Infectivity of pretreated HIV-1 virus for the Supt-1 line (p24 antigen in cell lysates, optical density; phase-contrast microscopy); assay type: cell-based; conditions: virus incubated 30 minutes with chloroazodine 1/3000; 24 days after infection; p24 in Supt-1 lysates
Source text: Ces essais comprennent comme matériel de départ : • de la N, N'-dichloroazodicarbonamidine (chloroazodine) à 95 % pure. La pureté a été examinée par chromatographie en couche mince et par un test de carbone-hydrogène (v. BRAZ G.I. et cons., J. Applied Chem. (USSR) 17,565-9 (1944)). • un surnageant de cultures de cellules (Molt-3) continuellement productrices de virus VIH-1. Le surnageant viral utilisé a une activité de transcriptase inverse de 1 x 10^6 cpm/ml. • des cellules d'une lignée T humaine continue de phénotype T4 (Supt-1) cultivée en milieu RPMI, additionné de 10 % de sérum de veau foetal et de 1 % de glutamine.
L' efficacité de la chloroazodine va être étudiée à deux niveaux : • a) action sur l'infectivité du virus VIH-1 pour la lignée Supt-1. • b) action sur l'intégration du génome viral dans l'ADN chromosomial des cellules Supt-1.
On fait incuber des préparations virales de VIH-1 à haut titre en présence de dilutions de chloroazodine de 1/1500 et de 1/3000 et pendant différents temps d'incubation. Pendant 30 minutes à 37°C, on traite préalablement les cellules Supt-1 par 10 µg/ml de polybrène, puis on les inocule avec les préparations de virus traités. On prévoit comme témoins, des cellules non inoculées, et des cellules inoculées par une préparation de virus non traités.
On détermine ensuite l'infectivité, à chaque passage cellulaire, de ces préparations en suivant la production virale (mesure de l'antigène p24 exprimé) dans les lysats cellulaires solubilisés des cellules Supt-1 examinées.
Les mesures du pouvoir infectieux du virus VIH-1 après incubation avec de la chloroazodine ressortent des tableaux 1 à 3 suivants, ainsi que des figures 1 à 3 qui correspondent aux tableaux 1 à 3. Sur ces figures, on trouve en ordonnée la densité optique (D.O.) et en abscisse le nombre de jours après l'infection. Le trait plein représente le témoin non traite, le trait interrompu la dilution de 1/1500 de chloroazodine, et le trait pointillé la dilution de 1/3000 de chloroazodine.

lymphocytes infectés = experiment: Mortality of HIV-1 infected human peripheral blood lymphocytes with chloroazodine; assay type: cell-based, humains; conditions: for Nombre de cellules mortes / Nombre de cellules vivantes: HIV-1 infected lymphocytes + chloroazodine 1/3000
Source text: (§1) Des lymphocytes humains provenant du sang périphérique de donneurs séro-négatifs (PBL) sont infectés par du VIH-1 provenant du surnageant de cellules Molt-3, c'est-à-dire de cellules continuellement productrices de ces virus.
Au jour 8 de l'infection, celle-ci est contrôlée par l'expression de l'antigène p 24 (Test Elisa, voir Exemple 4).
(§2) Quatre populations cellulaires sont étudiées quant à leur mortalité : • 1 des lymphocytes normaux en culture (Témoin A). • 2 des lymphocytes normaux en présence de chloroazodine 1/3000. • 3 des lymphocytes infectés non traités (Témoin B). • 4 des lymphocytes infectés, en présence de chloroazodine 1/3000. Tableau 4

[1] = tested on: virus VIH-1 dans des cellules Molt-3 B; experiment: p24 antigen in culture supernatants of treated Molt-3 B cells continuously producing HIV (optical density); assay type: cell-based; conditions: for Mesure du pouvoir infectieux des virus VIH-1 dans des cellules Molt-3 B (densité optique): p24 in supernatant
Experimental: Des cellules Molt-3 B, continuellement productrices de virus VIH, ont été traitées par de la chloroazodine à des concentrations de 1/1500 et 1/3000 pendant des périodes de 1 minute, 10 minutes et 30 minutes.
Les antigènes p 24 exprimes dans les surnageants de culture ont été évalués après 24 h., 48 h., 72 h. et 96 h.
Pour mesurer cet effet en contournant la toxicité du produit pour les cellules infectées, on a choisi de prendre un nombre cellulaire extraordinairement élevé de manière à conserver un nombre très faible, mais suffisant, de cellules vivantes après 96 h. Tableau 5

provirus VIH-1 = experiment: Integration of the viral genome into chromosomal DNA of Supt-1 cells (PCR of gag, LTR, env; hybridisation with P32 probes); assay type: cell-based; conditions: for provirus VIH-1 dans les cellules Supt-1: hybridisation with P32 probes for gag, LTR, env
Source text: Intégration du génome viral dans l'ADN chromosomial des cellules Supt-1.
Par amplification génétique grâce à une polymérase thermostable, on met en évidence la présence des gènes "gag", "LTR" et "env" du provirus VIH-1. Cette technique est appelée P.C.R. (Polymerase Chain Reaction) (CHIN-YIH OU et cons., Sciences, 239, 295-297, 1988).
Cette technique est appliquée pour la détection du provirus VIH-1 dans le génome des cellules Supt-1 inoculées par du virus VIH-1 incubé avec de la chloroazodine, comme décrit dans l'exemple 4.

lymphocytes normaux = assay type: cell-based, humains
Source text: as §1, §2

différences entre les témoins A et B et les lymphocytes sains + chloroazodine (lymphocytes normaux): non significatives
Compound: NC(N=NC(N)=NCl)=NCl [chloroazodine, N, N'-dichloroazodicarbonamidine]
Mesure d'infectivité du virus VIH-1 (D.O.492) (virus VIH-1): 0,172 ± 0,031
Nombre de cellules mortes (lymphocytes infectés; duration 1 min): 31
Nombre de cellules vivantes (lymphocytes infectés; duration 1 min): 17
Nombre de cellules mortes (lymphocytes infectés; duration 10 min): 34
Nombre de cellules vivantes (lymphocytes infectés; duration 10 min): 14
Nombre de cellules mortes (lymphocytes infectés; duration 30 min): 39
Nombre de cellules vivantes (lymphocytes infectés; duration 30 min): 21
Nombre de cellules mortes (lymphocytes infectés; duration 180 min): 20
Nombre de cellules vivantes (lymphocytes infectés; duration 180 min): 8
toxicité sélective pour des cellules infectées (lymphocytes infectés; conclusion from comparison of infected and normal lymphocytes, chloroazodine 1/3000): toxicité sélective de la chloroazodine pour des cellules infectées
Mesure du pouvoir infectieux des virus VIH-1 dans des cellules Molt-3 B (densité optique) ([1]; chloroazodine 1/1500, treatment 1 min, 24 h. after treatment): 0,175
Mesure du pouvoir infectieux des virus VIH-1 dans des cellules Molt-3 B (densité optique) ([1]; chloroazodine 1/1500, treatment 1 min, 48 h. after treatment): 0,175
Mesure du pouvoir infectieux des virus VIH-1 dans des cellules Molt-3 B (densité optique) ([1]; chloroazodine 1/1500, treatment 1 min, 72 h. after treatment): 0,167
Mesure du pouvoir infectieux des virus VIH-1 dans des cellules Molt-3 B (densité optique) ([1]; chloroazodine 1/1500, treatment 10 min, 24 h. after treatment): 0,182
Mesure du pouvoir infectieux des virus VIH-1 dans des cellules Molt-3 B (densité optique) ([1]; chloroazodine 1/1500, treatment 10 min, 48 h. after treatment): 0,181
Mesure du pouvoir infectieux des virus VIH-1 dans des cellules Molt-3 B (densité optique) ([1]; chloroazodine 1/1500, treatment 10 min, 72 h. after treatment): 0,145
Mesure du pouvoir infectieux des virus VIH-1 dans des cellules Molt-3 B (densité optique) ([1]; chloroazodine 1/1500, treatment 30 min, 24 h. after treatment): 0,194
Mesure du pouvoir infectieux des virus VIH-1 dans des cellules Molt-3 B (densité optique) ([1]; chloroazodine 1/1500, treatment 30 min, 48 h. after treatment): 0,155
Mesure du pouvoir infectieux des virus VIH-1 dans des cellules Molt-3 B (densité optique) ([1]; chloroazodine 1/1500, treatment 30 min, 72 h. after treatment): 0,173
Mesure du pouvoir infectieux des virus VIH-1 dans des cellules Molt-3 B (densité optique) ([1]; chloroazodine 1/3000, treatment 1 min, 24 h. after treatment): 0,247
Mesure du pouvoir infectieux des virus VIH-1 dans des cellules Molt-3 B (densité optique) ([1]; chloroazodine 1/3000, treatment 1 min, 48 h. after treatment): 0,154
Mesure du pouvoir infectieux des virus VIH-1 dans des cellules Molt-3 B (densité optique) ([1]; chloroazodine 1/3000, treatment 1 min, 72 h. after treatment): 0,170
Mesure du pouvoir infectieux des virus VIH-1 dans des cellules Molt-3 B (densité optique) ([1]; chloroazodine 1/3000, treatment 10 min, 24 h. after treatment): 0,180
Mesure du pouvoir infectieux des virus VIH-1 dans des cellules Molt-3 B (densité optique) ([1]; chloroazodine 1/3000, treatment 10 min, 48 h. after treatment): 0,176
Mesure du pouvoir infectieux des virus VIH-1 dans des cellules Molt-3 B (densité optique) ([1]; chloroazodine 1/3000, treatment 10 min, 72 h. after treatment): 0,152
Mesure du pouvoir infectieux des virus VIH-1 dans des cellules Molt-3 B (densité optique) ([1]; chloroazodine 1/3000, treatment 30 min, 24 h. after treatment): 0,211
Mesure du pouvoir infectieux des virus VIH-1 dans des cellules Molt-3 B (densité optique) ([1]; chloroazodine 1/3000, treatment 30 min, 48 h. after treatment): 0,162
Mesure du pouvoir infectieux des virus VIH-1 dans des cellules Molt-3 B (densité optique) ([1]; chloroazodine 1/3000, treatment 30 min, 72 h. after treatment): 0,176
production de VIH par des cellules infectées ([1]; conclusion of example 7, Molt-3 B cells, chloroazodine 1/1500 and 1/3000): capable d'empêcher la production de VIH par des cellules infectées
oligonucléotides amplifiés et visibles aux UV (provirus VIH-1; PCR, ethidium bromide): apparaissent uniquement dans les tubes à essais qui correspondent à une inoculation par du virus VIH-1 non traité à la chloroazodine
provirus VIH-1 dans les cellules Supt-1 (provirus VIH-1; virions treated at dilution 1/1500): absence totale de provirus VIH-1
provirus VIH-1 dans les cellules Supt-1 (provirus VIH-1; virions treated at dilution 1/3000): absence totale de provirus VIH-1
